Measured values: PubChem BioAssay (NCI)
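Five concentrations, 48 hours, 96-well plates. TGI: concentration producing complete growth inhibition.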

Assays:
Experiment in all cases: growth of human tumour cells (NCI), 48 h
[1] = test system: 786-0 renal
[2] = test system: A498 renal
[3] = test system: A549 NSCLC
[4] = test system: BT-549 breast
[5] = test system: CAKI-1 renal
[6] = test system: CCRF-CEM leukemia
[7] = test system: COLO 205 colon
[8] = test system: DU-145 prostate
[9] = test system: EKVX NSCLC
[10] = test system: HCC-2998 colon
[11] = test system: HCT-116 colon
[12] = test system: HCT-15 colon
[13] = test system: HL-60(TB) leukemia
[14] = test system: HS 578T breast
[15] = test system: HT29 colon
[16] = test system: K-562 leukemia
[17] = test system: KM12 colon
[18] = test system: LOX IMVI melanoma
[19] = test system: M14 melanoma
[20] = test system: MALME-3M melanoma
[21] = test system: MCF7 breast
[22] = test system: MDA-MB-231 breast
[23] = test system: MDA-MB-435
[24] = test system: MDA-N
[25] = test system: MOLT-4 leukemia
[26] = test system: NCI-H226 lung
[27] = test system: NCI-H23 lung
[28] = test system: NCI-H460 lung
[29] = test system: NCI-H522 lung
[30] = test system: NCI/ADR-RES ovarian
[31] = test system: OVCAR-3 ovarian
[32] = test system: OVCAR-4 ovarian
[33] = test system: OVCAR-5 ovarian
[34] = test system: OVCAR-8 ovarian
[35] = test system: PC-3 prostate
[36] = test system: RPMI-8226 leukemia
[37] = test system: RXF 393 renal
[38] = test system: SF-268 CNS
[39] = test system: SF-539 CNS
[40] = test system: SK-MEL-2 melanoma
[41] = test system: SK-MEL-28 melanoma
[42] = test system: SK-MEL-5 melanoma
[43] = test system: SK-OV-3 ovarian
[44] = test system: SN12C renal
[45] = test system: SNB-19 CNS
[46] = test system: SNB-75 CNS
[47] = test system: SR leukemia
[48] = test system: SW-620 colon
[49] = test system: T-47D breast
[50] = test system: TK-10 renal
[51] = test system: U251 CNS
[52] = test system: UACC-257 melanoma
[53] = test system: UACC-62 melanoma
[54] = test system: UO-31 renal
[55] = test system: ACHN renal
[56] = test system: HOP-62 NSCLC
[57] = test system: HOP-92 NSCLC
[58] = test system: IGROV1 ovarian
[59] = test system: SF-295 CNS

CSc1c(C#N)c(=O)n(N)c2c1c(C)nn2-c1ccccc1
TGI [1]: > 100 µM
TGI [2]: 65.8 µM
TGI [3]: 61.6 µM
TGI [4]: > 100 µM
TGI [5]: 43 µM
TGI [6]: 76.3 µM
TGI [7]: 32.5 µM
TGI [8]: > 100 µM
TGI [9]: 78 µM
TGI [10]: > 100 µM
TGI [11]: 56.2 µM
TGI [12]: 85.4 µM
TGI [13]: 94.5 µM
TGI [14]: > 100 µM
TGI [15]: 65.4 µM
TGI [16]: 87 µM
TGI [17]: > 100 µM
TGI [18]: 52.6 µM
TGI [19]: > 100 µM
TGI [20]: 70.2 µM
TGI [21]: 39.2 µM
TGI [22]: 57.9 µM
TGI [23]: > 100 µM
TGI [24]: > 100 µM
TGI [25]: 85.1 µM
TGI [26]: 70 µM
TGI [27]: 52.7 µM
TGI [28]: > 100 µM
TGI [29]: > 100 µM
TGI [30]: 62.9 µM
TGI [31]: 77 µM
TGI [32]: 96.1 µM
TGI [33]: > 100 µM
TGI [34]: 54 µM
TGI [35]: 76.7 µM
TGI [36]: 63.9 µM
TGI [37]: 69.1 µM
TGI [38]: > 100 µM
TGI [39]: 55.5 µM
TGI [40]: 63.3 µM
TGI [41]: > 100 µM
TGI [42]: 28.7 µM
TGI [43]: 93.8 µM
TGI [44]: > 100 µM
TGI [45]: > 100 µM
TGI [46]: 85.4 µM
TGI [47]: 71.8 µM
TGI [48]: > 100 µM
TGI [49]: 81 µM
TGI [50]: > 100 µM
TGI [51]: > 100 µM
TGI [52]: 60.9 µM
TGI [53]: 75.8 µM
TGI [54]: 51.9 µM

C=C1c2nc3ccccc3n2C=C(c2ccccc2)N1c1ccc(Cl)cc1
TGI [1]: 20.6 µM
TGI [2]: > 77 µM
TGI [3]: > 100 µM
TGI [55]: 38.4 µM
TGI [4]: > 66.2 µM
TGI [5]: 21.6 µM
TGI [6]: > 100 µM
TGI [7]: > 100 µM
TGI [8]: > 100 µM
TGI [9]: 49.2 µM
TGI [10]: > 100 µM
TGI [11]: > 100 µM
TGI [12]: > 90.1 µM
TGI [13]: > 100 µM
TGI [56]: > 63.3 µM
TGI [57]: 61.2 µM
TGI [14]: > 59.1 µM
TGI [15]: > 100 µM
TGI [58]: > 89.5 µM
TGI [16]: > 100 µM
TGI [17]: 66.3 µM
TGI [18]: > 100 µM
TGI [19]: > 75.2 µM
TGI [20]: 51.2 µM
TGI [21]: > 100 µM
TGI [22]: 51.8 µM
TGI [23]: > 100 µM
TGI [24]: > 100 µM
TGI [25]: > 100 µM
TGI [26]: > 87.1 µM
TGI [27]: 79.7 µM
TGI [28]: > 49.4 µM
TGI [29]: > 100 µM
TGI [30]: > 77.7 µM
TGI [31]: 59.5 µM
TGI [32]: 61.6 µM
TGI [33]: > 100 µM
TGI [34]: > 93.1 µM
TGI [35]: > 100 µM
TGI [36]: > 85 µM
TGI [37]: > 67.6 µM
TGI [38]: > 100 µM
TGI [59]: 49.2 µM
TGI [39]: 20.9 µM
TGI [40]: > 100 µM
TGI [41]: > 100 µM
TGI [42]: > 100 µM
TGI [43]: > 86.7 µM
TGI [44]: > 100 µM
TGI [45]: > 100 µM
TGI [46]: 19 µM
TGI [47]: > 100 µM
TGI [48]: > 100 µM
TGI [49]: > 100 µM
TGI [50]: 57.2 µM
TGI [51]: > 70.3 µM
TGI [52]: > 100 µM
TGI [53]: > 100 µM
TGI [54]: > 100 µM

COc1ccc(N2C(=O)C(Cl)C2c2cc3cc(Br)ccc3nc2Cl)cc1 (centres undefined)
TGI [1]: 18.5 µM
TGI [2]: > 25 µM
TGI [3]: > 25 µM
TGI [55]: 9.64 µM
TGI [4]: 9.11 µM
TGI [5]: 18.9 µM
TGI [6]: 14.7 µM
TGI [7]: 9.11 µM
TGI [8]: 21.2 µM
TGI [9]: 9.86 µM
TGI [10]: 7.52 µM
TGI [11]: 9.51 µM
TGI [12]: 11 µM
TGI [13]: 14.5 µM
TGI [56]: 20.4 µM
TGI [57]: 18.3 µM
TGI [14]: > 25 µM
TGI [15]: 8.84 µM
TGI [58]: 10.6 µM
TGI [16]: > 25 µM
TGI [17]: > 25 µM
TGI [18]: 4.41 µM
TGI [19]: 11 µM
TGI [20]: 10.1 µM
TGI [21]: 13.5 µM
TGI [22]: 9.1 µM
TGI [23]: 10.7 µM
TGI [24]: 15.7 µM
TGI [25]: 11.9 µM
TGI [26]: 13.2 µM
TGI [27]: 15.6 µM
TGI [28]: 12.2 µM
TGI [29]: 8.33 µM
TGI [30]: 14.1 µM
TGI [31]: > 25 µM
TGI [32]: 9.68 µM
TGI [33]: > 25 µM
TGI [34]: > 25 µM
TGI [35]: 21 µM
TGI [36]: 21.6 µM
TGI [37]: 9.38 µM
TGI [38]: 19 µM
TGI [59]: > 25 µM
TGI [39]: 10 µM
TGI [40]: 11.1 µM
TGI [41]: > 25 µM
TGI [42]: 8.63 µM
TGI [43]: > 25 µM
TGI [44]: 12.3 µM
TGI [45]: > 25 µM
TGI [46]: > 25 µM
TGI [47]: 6.82 µM
TGI [48]: 16.2 µM
TGI [49]: > 25 µM
TGI [50]: 15.5 µM
TGI [52]: 11.9 µM
TGI [53]: 8.86 µM
TGI [54]: 2.43 µM

CC(=O)Nc1cc(Cl)cc(Cl)c1O
TGI [1]: > 100 µM
TGI [2]: > 100 µM
TGI [3]: > 100 µM
TGI [55]: > 100 µM
TGI [4]: > 100 µM
TGI [5]: > 100 µM
TGI [6]: > 100 µM
TGI [7]: > 100 µM
TGI [8]: > 100 µM
TGI [9]: > 100 µM
TGI [10]: > 100 µM
TGI [11]: > 100 µM
TGI [12]: > 100 µM
TGI [13]: > 100 µM
TGI [56]: > 100 µM
TGI [57]: > 100 µM
TGI [14]: > 100 µM
TGI [15]: > 100 µM
TGI [58]: > 100 µM
TGI [16]: > 100 µM
TGI [17]: > 100 µM
TGI [19]: > 100 µM
TGI [20]: > 100 µM
TGI [21]: > 100 µM
TGI [22]: > 100 µM
TGI [23]: > 100 µM
TGI [24]: > 100 µM
TGI [25]: > 100 µM
TGI [26]: > 100 µM
TGI [27]: > 100 µM
TGI [28]: > 100 µM
TGI [29]: > 100 µM
TGI [30]: > 100 µM
TGI [31]: > 100 µM
TGI [32]: > 100 µM
TGI [33]: > 100 µM
TGI [34]: > 100 µM
TGI [35]: > 100 µM
TGI [36]: > 100 µM
TGI [37]: > 100 µM
TGI [38]: > 100 µM
TGI [59]: > 100 µM
TGI [39]: > 100 µM
TGI [40]: > 100 µM
TGI [41]: > 100 µM
TGI [42]: > 100 µM
TGI [43]: > 100 µM
TGI [44]: > 100 µM
TGI [45]: > 100 µM
TGI [46]: > 100 µM
TGI [47]: > 100 µM
TGI [48]: > 100 µM
TGI [49]: > 100 µM
TGI [50]: > 100 µM
TGI [51]: > 100 µM
TGI [52]: > 100 µM
TGI [53]: > 100 µM
TGI [54]: > 100 µM
